Test results as given in ChEMBL document CHEMBL4340538, “Cynaropicrin and inhibition of NF-κB activation: A structure activity relationship study” (Bioorg Med Chem Lett, 2019).
The source made the active and inactive calls. The rule behind the calls is not given here.

Experiments:
Format in all cases: cell-based
[1] = tested on: HEK293; assay: Cytotoxicity against human HEK293 cells at 0.75 uM to 3 uM after 7 hrs by WST-8 assay; conditions: hek293, 7 h
[2] = tested on: HEK293; assay: Inhibition of TNFalpha-induced NFkappaB activation in human HEK293 cells expressing pGL4.32 [luc2p/NF-kBRE/Hygro] assessed as NFkappaB activity by measuring relative light units at 1.5 uM incubated for 2 hrs followed by TNFalpha addition and measured after 5 hrs by luciferase reporter gene assay
[3] = tested on: HEK293; assay: Inhibition of TNFalpha-induced NFkappaB activation in human HEK293 cells expressing pGL4.32 [luc2p/NF-kBRE/Hygro] assessed as NFkappaB activity by measuring relative light units at 0.75 uM incubated for 2 hrs followed by TNFalpha addition and measured after 5 hrs by luciferase reporter gene assay
[4] = tested on: HEK293; assay: Inhibition of TNFalpha-induced NFkappaB activation in human HEK293 cells expressing pGL4.32 [luc2p/NF-kBRE/Hygro] assessed as NFkappaB activity by measuring relative light units at 3 uM incubated for 2 hrs followed by TNFalpha addition and measured after 5 hrs by luciferase reporter gene assay
[5] = tested on: HEK293; assay: Cytotoxicity against human HEK293 cells at 3 uM after 7 hrs by WST-8 assay; conditions: hek293, 7 h
[6] = tested on: HEK293; assay: Inhibition of TNFalpha-induced NFkappaB activation in human HEK293 cells expressing pGL4.32 [luc2p/NF-kBRE/Hygro] at 80 uM incubated for 2 hrs followed by TNFalpha addition and measured after 5 hrs by luciferase reporter gene assay
[7] = tested on: HEK293; assay: Inhibition of TNFalpha-induced NFkappaB activation in human HEK293 cells expressing pGL4.32 [luc2p/NF-kBRE/Hygro] at 2.5 uM to 10 uM incubated for 2 hrs followed by TNFalpha addition and measured after 5 hrs by luciferase reporter gene assay

| Compound | Activity [1] | Activity [2] [RLU] | Activity [3] [RLU] | Activity [4] [RLU] | Activity [5] | inhibition [6] | inhibition [7] |
| --- | --- | --- | --- | --- | --- | --- | --- |
| C=C1C(=O)O[C@@H]2[C@H]3C(=C)[C@@H](OCOC)C[C@H]3C(=C)C[C@H](O)[C@@H]12 | Non-Toxic | 125 | 127 | 100 | Non-Toxic | – | – |
| S=C(S)N1CCCC1 | – | – | – | – | – | Active | – |
| C=C1C(=O)O[C@@H]2[C@H]3C(=C)[C@@H](O)C[C@H]3C(=C)C[C@H](O)[C@@H]12 [DESACYLCYNAROPICRIN] | Non-Toxic | 119 | 127 | 96.4 | Non-Toxic | – | – |
| C=C(COC(C)=O)C(=O)O[C@H]1CC(=C)[C@@H]2C[C@H](O)C(=C)[C@@H]2[C@H]2OC(=O)C(=C)[C@@H]21 | Non-Toxic | 110 | 130 | 33.8 | Non-Toxic | – | – |
| C=C(COCOC)C(=O)O[C@H]1CC(=C)[C@@H]2C[C@H](OCOC)C(=C)[C@@H]2[C@H]2OC(=O)C(=C)[C@@H]21 | Non-Toxic | 98.3 | 154 | 8.97 | Non-Toxic | – | – |
| C=C1C(=O)O[C@@H]2[C@H]3C(=C)[C@@H](O)C[C@H]3C(=C)C[C@H](OC(=O)C(C)CO)[C@@H]12 (some centres not stated) | Non-Toxic | 135 | 123 | 137 | Non-Toxic | – | – |
| C=C(COC(C)=O)C(=O)O[C@H]1CC(=C)[C@@H]2C[C@H](OC(C)=O)C(=C)[C@@H]2[C@H]2OC(=O)C(=C)[C@@H]21 | Non-Toxic | 142 | 171 | 93.5 | Non-Toxic | – | – |
| C=C1[C@@H]2[C@H]3OC(=O)C(C)[C@@H]3[C@@H](OC(=O)C(C)CO)CC(=C)[C@@H]2C[C@@H]1O (some centres not stated) | Non-Toxic | 139 | 123 | 137 | Non-Toxic | – | – |
| C=C(COC)C(=O)O[C@H]1CC(=C)[C@@H]2C[C@H](OC)C(=C)[C@@H]2[C@H]2OC(=O)C(=C)[C@@H]21 | Non-Toxic | 158 | 174 | 134 | Non-Toxic | – | – |
| C=C(COC)C(=O)O[C@H]1CC(=C)[C@@H]2C[C@H](O)C(=C)[C@@H]2[C@H]2OC(=O)C(=C)[C@@H]21 | Non-Toxic | 151 | 161 | 137 | Non-Toxic | – | – |
| C=C(CO)C(=O)O[C@H]1CC(=C)[C@@H]2C[C@H](O)C(=C)[C@@H]2[C@H]2OC(=O)C(=C)[C@@H]21 [CYNAROPICRIN] | Non-Toxic | 72.8 | 134 | 5.67 | Non-Toxic | – | Active |
